Counter-ions that a name gives are not always drawn.

The results in this text go back to patent US9422293B2 (priority 2006, dated 2016).

In this experiment the target is rat TRPV1 (Rattus norvegicus (Rat), UniProt O35433). Conditions: read-out: Rat IC50.
rat TRPV1, sequence (O35433 whole entry): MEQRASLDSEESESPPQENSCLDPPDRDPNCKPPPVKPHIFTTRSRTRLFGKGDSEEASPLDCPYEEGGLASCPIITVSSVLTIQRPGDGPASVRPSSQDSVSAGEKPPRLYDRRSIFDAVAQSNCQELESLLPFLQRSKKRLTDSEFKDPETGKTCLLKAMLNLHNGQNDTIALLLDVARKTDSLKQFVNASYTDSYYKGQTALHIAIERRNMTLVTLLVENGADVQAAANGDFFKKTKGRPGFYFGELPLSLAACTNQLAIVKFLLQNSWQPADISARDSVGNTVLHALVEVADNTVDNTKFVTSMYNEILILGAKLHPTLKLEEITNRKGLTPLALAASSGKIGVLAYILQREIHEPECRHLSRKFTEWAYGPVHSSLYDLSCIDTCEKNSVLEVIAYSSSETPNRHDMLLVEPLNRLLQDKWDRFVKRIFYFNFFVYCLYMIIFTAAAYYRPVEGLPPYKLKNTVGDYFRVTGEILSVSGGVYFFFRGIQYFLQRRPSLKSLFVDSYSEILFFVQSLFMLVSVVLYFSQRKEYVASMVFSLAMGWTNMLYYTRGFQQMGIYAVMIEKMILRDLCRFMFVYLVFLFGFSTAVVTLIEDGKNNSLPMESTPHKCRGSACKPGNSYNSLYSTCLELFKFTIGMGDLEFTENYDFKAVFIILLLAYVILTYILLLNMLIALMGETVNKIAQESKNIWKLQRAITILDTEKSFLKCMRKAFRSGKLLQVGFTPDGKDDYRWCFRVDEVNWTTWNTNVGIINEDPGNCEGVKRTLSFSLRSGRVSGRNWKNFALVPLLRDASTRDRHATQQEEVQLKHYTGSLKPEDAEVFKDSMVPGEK
The IC50 is the concentration that gives 50% inhibition. As for `Cc1nc2c(c(Nc3ccc(C(F)(F)F)cn3)n1)CCN(c1ncccc1C(F)(F)F)CC2` [Example 69, [2-Methyl-7-(3-trifluoromethyl-pyridin-2-yl)-6,7,8,9-tetrahydro-5H-pyrimido[4,5-d]azepin-4-yl]-(5-trifluoromethyl-pyridin-2-yl)-amine], the IC50 is 500 nM. As to `CN(C)c1nc2c(c(NCc3ccccc3)n1)CCN(c1ncccc1C(F)(F)F)CC2` [Example 70B, N^4-Benzyl-N^2,N^2-dimethyl-7-(3-trifluoromethyl-pyridin-2-yl)-6,7,8,9-tetrahydro-5H-pyrimido[4,5-d]azepine-2,4-diamine trifluoroacetic acid salt], the IC50 was found to be 4400 nM. To `CN(C)c1nc2c(c(Nc3ccc([N+](=O)[O-])cc3)n1)CCN(c1ncccc1C(F)(F)F)CC2` [Example 72B, N^2,N^2-Dimethyl-N^4-(4-nitro-phenyl)-7-(3-trifluoromethyl-pyridin-2-yl)-6,7,8,9-tetrahydro-5H-pyrimido[4,5-d]azepine-2,4-diamine trifluoroacetic acid salt] belongs 180 nM; to `CSc1nc2c(c(Nc3ccc(C(F)(F)F)cn3)n1)CCN(c1ncccc1C(F)(F)F)CC2` [Example 74B, [2-Methylsulfanyl-7-(3-trifluoromethyl-pyridin-2-yl)-6,7,8,9-tetrahydro-5H-pyrimido[4,5-d]azepin-4-yl]-(5-trifluoromethyl-pyridin-2-yl)-amine trifluoroacetic acid salt], 3900 nM; to `CSc1nc2c(c(Nc3ccc(C(F)(F)F)nc3)n1)CCN(c1ncccc1C(F)(F)F)CC2` [Example 75B, [2-Methylsulfanyl-7-(3-trifluoromethyl-pyridin-2-yl)-6,7,8,9-tetrahydro-5H-pyrimido[4,5-d]azepin-4-yl]-(6-trifluoromethyl-pyridin-3-yl)-amine trifluoroacetic acid salt], 40 nM.

Consider `COC(=O)c1ccc(Nc2nc(N(C)C)nc3c2CCN(c2ncccc2C(F)(F)F)CC3)cc1` [Example 77B, 4-[2-Dimethylamino-7-(3-trifluoromethyl-pyridin-2-yl)-6,7,8,9-tetrahydro-5H-pyrimido[4,5-d]azepin-4-ylamino]-benzoic acid methyl ester trifluoroacetic acid salt], for which the IC50 turned out to be 580 nM.

As to `CN(C)c1ccc(Nc2nc(N(C)C)nc3c2CCN(c2ncccc2C(F)(F)F)CC3)cc1` [Example 79B, N^4-(4-Dimethylamino-phenyl)-N^2,N^2-dimethyl-7-(3-trifluoromethyl-pyridin-2-yl)-6,7,8,9-tetrahydro-5H-pyrimido[4,5-d]azepine-2,4-diamine trifluoroacetic acid salt], the IC50 turned out to be 1300 nM. Take `COCc1nc2c(c(Nc3ccc(C(F)(F)F)c(Cl)c3)n1)CCN(c1ncccc1C(F)(F)F)CC2` [Example 80B, (3-Chloro-4-trifluoromethyl-phenyl)-[2-methoxymethyl-7-(3-trifluoromethyl-pyridin-2-yl)-6,7,8,9-tetrahydro-5H-pyrimido[4,5-d]azepin-4-yl]-amine trifluoroacetic acid salt]: the IC50 came out at 130 nM. `COc1ccc(Nc2nc(N(C)C)nc3c2CCN(c2ncccc2C(F)(F)F)CC3)cc1` [Example 81B, N^4-(4-Methoxy-phenyl)-N^2,N^2-dimethyl-7-(3-trifluoromethyl-pyridin-2-yl)-6,7,8,9-tetrahydro-5H-pyrimido[4,5-d]azepine-2,4-diamine trifluoroacetic acid salt]: the IC50 amounted to 970 nM. On to `CN(C)c1nc2c(c(NC3Cc4ccccc4C3)n1)CCN(c1ncccc1C(F)(F)F)CC2` [Example 82B, N^4-Indan-2-yl-N^2,N^2-dimethyl-7-(3-trifluoromethyl-pyridin-2-yl)-6,7,8,9-tetrahydro-5H-pyrimido[4,5-d]azepine-2,4-diamine trifluoroacetic acid salt], for which the IC50 came out at 2800 nM. To `Cc1cc(N)cnc1N1CCc2nc(C(C)C)nc(Nc3ccc(C(F)(F)F)cc3)c2CC1` [Example 83, [7-(5-Amino-3-methyl-pyridin-2-yl)-2-isopropyl-6,7,8,9-tetrahydro-5H-pyrimido[4,5-d]azepin-4-yl]-(4-trifluoromethyl-phenyl)-amine] belongs 990 nM; to `CC(C)c1nc2c(c(Nc3ccc(C(F)(F)F)cc3)n1)CCN(c1ccccc1N)CC2` [Example 84, [7-(2-Amino-phenyl)-2-isopropyl-6,7,8,9-tetrahydro-5H-pyrimido[4,5-d]azepin-4-yl]-(4-trifluoromethyl-phenyl)-amine], greater than 20000 nM; to `CC(C)c1nc2c(c(Nc3ccc(C(F)(F)F)cc3)n1)CCN(c1ccccc1[N+](=O)[O-])CC2` [Example 85, [2-Isopropyl-7-(2-nitro-phenyl)-6,7,8,9-tetrahydro-5H-pyrimido[4,5-d]azepin-4-yl]-(4-trifluoromethyl-phenyl)-amine], greater than 6700 nM. To `CC(C)c1nc2c(c(Nc3ccc(C(F)(F)F)cc3)n1)CCN(c1ncccc1N)CC2` [Example 86, [7-(3-Amino-pyridin-2-yl)-2-isopropyl-6,7,8,9-tetrahydro-5H-pyrimido[4,5-d]azepin-4-yl]-(4-trifluoromethyl-phenyl)-amine] belongs 850 nM; to `Cc1cc([N+](=O)[O-])cnc1N1CCc2nc(C(C)C)nc(Nc3ccc(C(F)(F)F)cc3)c2CC1` [Example 87, [2-Isopropyl-7-(3-methyl-5-nitro-pyridin-2-yl)-6,7,8,9-tetrahydro-5H-pyrimido[4,5-d]azepin-4-yl]-(4-trifluoromethyl-phenyl)-amine], 350 nM; to `CC(C)c1nc2c(c(Nc3ccc(C(F)(F)F)cc3)n1)CCN(c1ncccc1[N+](=O)[O-])CC2` [Example 88, [2-Isopropyl-7-(3-nitro-pyridin-2-yl)-6,7,8,9-tetrahydro-5H-pyrimido[4,5-d]azepin-4-yl]-(4-trifluoromethyl-phenyl)-amine], 960 nM.

In the case of `O=C1CN(c2nc3c(c(Nc4ccc(C(F)(F)F)cc4)n2)CCN(c2ncccc2C(F)(F)F)CC3)CCN1` [Example 90B, 4-[4-(4-Trifluoromethyl-phenylamino)-7-(3-trifluoromethyl-pyridin-2-yl)-6,7,8,9-tetrahydro-5H-pyrimido[4,5-d]azepin-2-yl]-piperazin-2-one trifluoroacetic acid salt], the IC50 is greater than 6700 nM. To `O[C@@H]1CCCN(c2nc3c(c(Nc4ccc(C(F)(F)F)cc4)n2)CCN(c2ncccc2C(F)(F)F)CC3)C1` [Example 91B, (R)-1-[4-(4-Trifluoromethyl-phenylamino)-7-(3-trifluoromethyl-pyridin-2-yl)-6,7,8,9-tetrahydro-5H-pyrimido[4,5-d]azepin-2-yl]-piperidin-3-ol trifluoroacetic acid salt] belongs 240 nM. With `CN1CCN(c2nc3c(c(Nc4ccc(C(F)(F)F)cc4)n2)CCN(c2ncccc2C(F)(F)F)CC3)CC1` [Example 92B, [2-(4-Methyl-piperazin-1-yl)-7-(3-trifluoromethyl-pyridin-2-yl)-6,7,8,9-tetrahydro-5H-pyrimido[4,5-d]azepin-4-yl]-(4-trifluoromethyl-phenyl)-amine trifluoroacetic acid salt], the IC50 was determined as 270 nM.
